Two substances from US10688197B2, “Non-alcoholic fatty liver regulator 14-3-3 protein” (Korea University Research and Business Foundation, priority 2015, dated 2020) can be followed below.

The subject of test [1] is FAT/CD36 promoter. As to the kind of experiment: Chromatin immunoprecipitation (ChIP assay), binding of PPARγ2 to FAT/CD36 promoter in HepG2 cells. It counts as cell-based. To be noted: overexpression, FIG. 7C upper side. As for the experimental part:
In addition, for chromatin immunoprecipitation (ChIP), HepG2 cells were seeded in a 100 mm plate at a density of 4×10^6 cells per each well, and then transfected with Flag-PPARγ2 DNA (4 μg), mGST-14-3-3β DNA (4 μg) or mGST-14-3-3γ DNA (4 μg), and si-14-3-3β (20 μM, Santa Cruz) or si-14-3-3γ (20 μM, Santa Cruz) using an E-fection plus reagent (Lugen). A ratio of DNA to the E-fection plus reagent was 1:2, and this method was performed according to a manufacturer's manual. The corresponding cells were treated with 0.75% formaldehyde at room temperature for 15 minutes, glycine was added thereto, and the resulting cells were scraped into ice-cold PBS and centrifuged at 1,000×g and 4° C. for 3 minutes to remove a supernatant, pellets were dissolved with 400 μl of FA lysis buffer (50 mM HEPES, 150 mM NaCl, 2 mM EDTA pH 8.0, 1% Triton-X100, 0.1% NaDeoxycholate), and then lysed using a sonicator twice for 10 minutes at a high voltage under the following condition: lysis for 30 seconds and resting for 30 seconds. […]
In addition, the binding of PPARγ2 and a binding strength thereof according to the expression of 14-3-3β and 14-3-3γ were evaluated by ChIP assay using a PPAR response element (PPRE) known as a binding site of PPARγ2 present in the FAT/CD36 promoter. […]

Test [2] deals with HepG2 cells. As to the kind of experiment: Triglyceride colorimetric assay in HepG2 cells. It counts as cell-based, human. To be noted: HepG2, overexpression, 200 μM oleic acid 72 hours, FIG. 10A. The method, then: HepG2 cells and primary mouse hepatocytes were separately seeded in a 6-well plate at a density of 4×10^5 cells per each well, and then transfected with GFP-14-3-3β DNA (1 μg) or GFP-14-3-3γ DNA (1 μg) and si-14-3-3β (10 μM, Santa Cruz) or si-14-3-3γ (10 μM, Santa Cruz) using an E-fection plus reagent (Lugen). A ratio of DNA to the E-fection plus reagent was 1:2, and this method was performed according to a manufacturer's manual. After transfection, the cells were treated with 200 μM of oleic acid (OA) for 72 hours, and the amount of triglycerides was measured using a triglyceride colorimetric assay kit (Cayman Chemical). The corresponding cells were washed with ice-cold PBS and then scraped using a standard diluent assay reagent, the scrapping process was repeated using a sonicator 20 times to lyse the cells, and the lysed cells were reacted with an enzyme buffer solution for 15 minutes, followed by measurement using an ELISA reader (Bio-Rad Laboratories, Inc) at a wavelength of 550 nm.

Test [3] deals with T1, PPARγ2 deletion mutant (1-310) (Homo sapiens, UniProt P37231).
T1 construct: Flag-PPARγ2 (1-310) DNA (4 μg); expressed in transfected cells; host or cells: HEK-293T
T1 sequence (P37231 1-310): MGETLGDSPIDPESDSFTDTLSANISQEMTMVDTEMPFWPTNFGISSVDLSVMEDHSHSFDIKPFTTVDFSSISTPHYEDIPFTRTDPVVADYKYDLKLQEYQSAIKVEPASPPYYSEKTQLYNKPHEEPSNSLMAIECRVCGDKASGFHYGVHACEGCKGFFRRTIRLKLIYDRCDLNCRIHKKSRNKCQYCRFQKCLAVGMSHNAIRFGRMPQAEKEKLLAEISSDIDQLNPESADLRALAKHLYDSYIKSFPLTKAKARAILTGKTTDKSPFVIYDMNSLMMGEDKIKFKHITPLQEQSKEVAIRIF
As to the kind of experiment: GST-pull down assay with PPARγ2 deletion mutant (1-310). To be noted: FIG. 3B/3C. In kind it is binding. The method, then:
HEK-293T cells were seeded in a 100 mm plate at a density of 2×10^6 cells per each well, and then transfected with Flag-PPARγ2 (1-505) DNA (4 μg), Flag-PPARγ2 (1-310) DNA (4 μg), Flag-PPARγ2 (139-505) DNA (4 μg), and mGST-14-3-3β (4 μg) or mGST-14-3-3γ (4 μg) using an E-fection plus reagent (Lugen). For Flag-PPARγ2 (1-310) DNA and Flag-PPARγ2 (139-505) DNA, DNA fragments amplified through polymerase chain reaction (PCR) were cloned into a pCMV-3Tag-1 vector using restriction enzymes XhoI and ApaI. A ratio of DNA to the E-fection plus reagent was 1:2, and this method was performed according to a manufacturer's manual. The corresponding cells were washed with ice-cold PBS and lysed using 500 μl/well of a lysis buffer (150 mM NaCl, 1 mM EDTA, 1% Nonidet P-40, 5% glycerol, 25 mM tris-HCl, pH 7.5, protease inhibitor added), and the lysed cells were centrifuged at 10,000×g and 4° C. for 10 minutes to extract proteins. Thereafter, 1,000 μg of the proteins was reacted with 20 μl of glutathione Sepharose 4B beads (GE Healthcare, Buckinghamshire, UK) for 6 hours, and then washing of the beads with 1 ml of ice-cold PBS was repeated 5 times, and the beads were boiled at 100° C. for 10 minutes, followed by 10% SDS-PAGE gel separation and western blotting. A ratio of GST antibodies (Santa Cruz) to Flag antibodies (Santa Cruz) was 1:3000. […]

The test system of test [4] is SREBP-1c protein. As to the kind of experiment: SREBP-1c protein expression by western blotting in HepG2 cells. It counts as cell-based. To be noted: HepG2, overexpression, 200 μM oleic acid 72 hours, FIG. 7D. The method, then:
In addition, HepG2 cells were seeded in a 6-well plate at a density of 5×10^5 cells per each well, and then transfected with HA-14-3-3β DNA (1 μg) or HA-14-3-3γ DNA (1 μg) using an E-fection plus reagent (Lugen). A ratio of DNA to the E-fection plus reagent was 1:2, and this method was performed according to a manufacturer's manual. After transfection, the cells were treated with 200 μM of oleic acid (OA) for 72 hours, washed with ice-cold PBS, and lysed with 80 μl/well of a lysis buffer (150 mM NaCl, 1 mM EDTA, 1% Nonidet P-40, 5% glycerol, 25 mM tris-HCl, pH 7.5, protease inhibitor added), the lysed cells were centrifuged at 10,000×g and 4° C. for 10 minutes to extract proteins, and 30 μg of the proteins was separated on a 10% SDS-PAGE gel and identified using each of the antibodies (HA, SREBP-1c: Santa Cruz) by western blotting, and all antibodies were used in a ratio of 1:3000.
For orientation: A western blot detects proteins with antibodies after separation by electrophoresis.

With “14-3-3γ: 14-3-3 isoform protein overexpressed by DNA transfection; decreases the transcriptional activity of PPARγ2; proposed active ingredient”, the “binding of PPARγ2 to the FAT/CD36 promoter” value in test [1] is on record as “inhibited”. The triglyceride accumulation result in test [2] is reported as “reduced”. For the same substance, the “binding to PPARγ2 deletion mutant (1-310)” value in test [3] was “bound”. Besides, the “expression of the SREBP-1c protein” value in test [4] is “reduced”.
Turning to “14-3-3β: 14-3-3 isoform protein overexpressed by DNA transfection; increases the transcriptional activity of PPARγ2 by binding to PPARγ2”, the “binding of PPARγ2 to the FAT/CD36 promoter” value in test [1] was “increased”. In addition, in test [2], the triglyceride accumulation entry is “further increased”. The “binding to PPARγ2 deletion mutant (1-310)” value in test [3] is reported as “bound”. Further, in test [4], the “expression of the SREBP-1c protein” value is on record as “increased”.
